Reference: patent US6576620B2, “Method of identifying partial adenosine A1 receptor agonists” (CV Therapeutics, Inc., priority 1999, dated 2003)
Read-outs that look alike come from different tables or passages of the source.

Columns and labels:
[1] = test system: Adenosine A1 receptor; assay: A1-agonist stimulated [35S]GTPγS binding to G proteins; format: biochemical; conditions: for GTPγS: normalized to the full agonist CPA
Method: At the end of the incubation, each suspension was filtered and the retained radioactivity determined as described above.

[2] = target: T1, A1-AdoR (Cavia porcellus, UniProt P47745); assay: 3H-CPX binding to guinea pig forebrain membranes; conditions: for IC50: IC50 to reduce the binding of 3H-CPX
T1 sequence (P47745 1-326): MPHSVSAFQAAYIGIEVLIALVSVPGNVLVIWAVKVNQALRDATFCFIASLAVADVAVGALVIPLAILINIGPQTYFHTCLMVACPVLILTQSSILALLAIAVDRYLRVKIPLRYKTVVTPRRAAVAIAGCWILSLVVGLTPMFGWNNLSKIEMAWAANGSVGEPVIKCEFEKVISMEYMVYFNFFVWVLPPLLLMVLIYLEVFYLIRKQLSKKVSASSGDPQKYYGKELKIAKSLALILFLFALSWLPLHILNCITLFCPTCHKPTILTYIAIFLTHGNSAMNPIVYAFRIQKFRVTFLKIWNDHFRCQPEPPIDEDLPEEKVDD
Method: Membranes containing A1-AdoRs for use in radioligand binding assays were prepared from guinea pig cerebral cortex or from rat isolated epididymal adipocytes. Freshly-isolated guinea pig brain cortical tissue was homogenized in ice-cold 50 mM Tris-HCl buffer (pH 7.4) using six up and down strokes of an ice-chilled Potter-Elvejhem tissue grinder and a motor-driven teflon™ pestle. A crude membrane preparation was isolated by centrifugation of the homogenate at 15,000×g for 20 min at 4° C. The membrane pellet was resuspended in fresh Tris buffer and pelleted again by centrifugation. The final membrane pellet was suspended in Tris buffer to achieve a protein content of 1.1-1.4 mg/ml and divided into aliquots for storage at −80° C. until needed for assays. Adipocytes were isolated from 10 epididymal fat pads and suspended in a homogenization buffer (pH 7.3) containing 250 mM sucrose, 20 mM HEPES, 1 mM EDTA, 10 μg/ml leupeptin, and 5 μg/ml pepstatin. Cells were homogenized using an ice-chilled Potter-Elvehjem tissue grinder and a motor-driven teflon™ pestle. Cell membranes were separated from fat by centrifugation of the homogenate for 5 min at 1000×g at 4° C. The infranate below the fat cake was removed and placed in a centrifuge tube. Membranes were collected by centrifugation of the infranate for 30 min at 20,000×g at 4° C. Membranes were resuspended in buffer (pH 7.1 at room temperature) containing 154 mM NaCl, 10 mM MgCl2, 50 mM HEPES, 1 mM EDTA, 5 μg/ml leupeptin, 5 μg/ml pepstatin, and 5 U/ml adenosine deaminase, and stored as aliquots in liquid nitrogen until needed for assays.
The binding affinity of experimental agonists high and low affinity states of the A1-ADOR was determined. […] The presence of GTP reduces the availability of high affinity binding sites on the GPCR. Thus, the method allows for a discrimination between high and low binding affinities.
After a 3 hour incubation at room temperature. the reaction was terminated by diluting the samples with ice-cold Tris buffer and immediate collection of membranes onto glass-fiber filters (Schleicher and Schuell, Keene, N.H.) by vacuum filtration using a cell harvester (Brandel, Gaithersburg, Md.). Filters were washed quickly three times with ice-cold buffer to remove unbound radioligand. Filter discs containing trapped membranes and bound radioligand were placed in 4 ml of scintillation cocktail and radioactivity of samples was quantified using a liquid scintillation counter. […] Results of radioligand binding assays were analyzed using the Prism program from GraphPad (San Diego, Calif.).

[3] = test system: guinea pig isolated heart; assay: Monophasic action potential duration, isolated heart
Method: Signals were considered adequate if they were stable for at least 5-10 min and the amplitudes exceeded 10 mV. The data were digitized at 2 kHz by a DT-2801A digitizing board (Data Translation, Marlboro, Mass.) and were saved for analysis using the Snapshot data acquisition program (Snapshot Storage Scope, HEM Data Corp., Southfield, Mich.). The duration of the atrial and ventricular monophasic action potentials was measured from onset of depolarization to either 50 or 90% of repolarization.

[4] = Ki for reduction of 3H-CPX binding, absence of GTP

Ki ([2]; Ki for reduction of 3H-CPX binding, presence of 1 mM GTP)	Compound	GTPγS ([1]; Table 1, compounds of Example 2)	GTPγS ([1]; Table 2, compounds of Example 3)	GTPγS ([1]; Table 3, compounds of Example 4)	GTPγS (% of CPA) ([1]; Table 5)	IC50 ([2]; absence of GTP)	IC50 ([2]; presence of 1 mM GTP)	Ki [2, 4]	Ki ([2]; Ki, high affinity sites, presence of 1 mM GTP, 2-site binding model)	Hill slope ([2]; absence of GTP)	difference of IC50 in absence and presence of 1 mM GTP ([2]; forebrain membranes)	Hill slope ([2]; presence of 1 mM GTP)	sites having a high affinity ([2]; presence of 1 mM GTP, 2-site binding model)	Ki ([2]; read-out: Ki, low affinity sites, presence of 1 mM GTP, 2-site binding model)	effect on duration of ventricular or atrial monophasic action potential [3]	duration of atrial monophasic action potential at 50% of repolarization ([3]; 20 μM compound, control 41±3)	duration of atrial monophasic action potential at 90% of repolarization ([3]; 20 μM compound, control 66±4)	duration of ventricular monophasic action potential at 90% of repolarization ([3]; 20 μM compound, control 158±4)
	OC[C@H]1O[C@@H](n2cnc3c(NC4CCCC4)ncnc32)[C@H](O)[C@@H]1O [CPA, N^6-cyclopentyladenosine, reference compound]	100%	100%	100%	100 % of CPA	2.5 nM	28 nM	1.7 nM	10.4 nM	1.2	11 fold	0.53	73%	882 nM				
2100 nM	CNC(=O)OC[C@H]1OC(n2cnc3c(N[C@@H]4CCOC4)ncnc32)[C@H](O)[C@@H]1O (stereo partly drawn) [Compound 6 of Example 2, [(5-{6-[((3R)oxolan-3-yl)amino]purin-9-yl}(3 S,2R,4R)-3,4-dihydroxyoxolan-2-yl)methoxy]-N-methylcarboxamide]						2900 nM	1800 nM		0.79		0.99			no significant effect	41 ± 3 ms	74 ± 4 ms	160 ± 7 ms
